According to ChEMBL document CHEMBL4000244, “Probing A-form DNA: A fluorescent aminosugar probe and dual recognition by anthraquinone-neomycin conjugates” (Bioorg Med Chem, 2017):

Experiments:
[1] = Binding affinity to 5'-GCCCCCCC-3' DNA hairpin assessed as change in fluorescence intensity at 1 uM after 45 mins by fluorescence quenching analysis relative to control
[2] = Binding affinity to 5'-GCCCCCGC-3' DNA hairpin assessed as change in fluorescence intensity at 1 uM after 45 mins by fluorescence quenching analysis relative to control
[3] = Binding affinity to 5'-CGCCCCCC-3' DNA hairpin assessed as change in fluorescence intensity at 1 uM after 45 mins by fluorescence quenching analysis relative to control
[4] = Binding affinity to 5'-GCCCCGGC-3' DNA hairpin assessed as change in fluorescence intensity at 1 uM after 45 mins by fluorescence quenching analysis relative to control
[5] = Binding affinity to 5'-CCCGGGGC-3' DNA hairpin assessed as change in fluorescence intensity at 1 uM after 45 mins by fluorescence quenching analysis relative to control
[6] = Binding affinity to 5'-CCCCCGGG-3' DNA hairpin assessed as change in fluorescence intensity at 1 uM after 45 mins by fluorescence quenching analysis relative to control
[7] = Binding affinity to 5'-GCCCGGCC-3' DNA hairpin assessed as change in fluorescence intensity at 1 uM after 45 mins by fluorescence quenching analysis relative to control
[8] = Binding affinity to 5'-CCGGGCCC-3' DNA hairpin assessed as change in fluorescence intensity at 1 uM after 45 mins by fluorescence quenching analysis relative to control
[9] = Binding affinity to 5'-GCCCCGCC-3' DNA hairpin assessed as change in fluorescence intensity at 1 uM after 45 mins by fluorescence quenching analysis relative to control
[10] = Binding affinity to 5'-CGGGGCCC-3' DNA hairpin assessed as change in fluorescence intensity at 1 uM after 45 mins by fluorescence quenching analysis relative to control
[11] = Binding affinity to 5'-CGGGGGCG-3' DNA hairpin assessed as change in fluorescence intensity at 1 uM after 45 mins by fluorescence quenching analysis relative to control
[12] = Binding affinity to 5'-GGGGCCGC-3' DNA hairpin assessed as change in fluorescence intensity at 1 uM after 45 mins by fluorescence quenching analysis relative to control
[13] = Binding affinity to 5'-CGCCCCGG-3' DNA hairpin assessed as change in fluorescence intensity at 1 uM after 45 mins by fluorescence quenching analysis relative to control
[14] = Binding affinity to 5'-CGCCCGCC-3' DNA hairpin assessed as change in fluorescence intensity at 1 uM after 45 mins by fluorescence quenching analysis relative to control
[15] = Binding affinity to 5'-CGGCGCCG-3' DNA hairpin assessed as change in fluorescence intensity at 1 uM after 45 mins by fluorescence quenching analysis relative to control
[16] = Binding affinity to 5'-CGCGCGCG-3' DNA hairpin assessed as change in fluorescence intensity at 1 uM after 45 mins by fluorescence quenching analysis relative to control
[17] = Binding affinity to 5'-GCGCCCCG-3' DNA hairpin assessed as change in fluorescence intensity at 1 uM after 45 mins by fluorescence quenching analysis relative to control
[18] = Binding affinity to 5'-GCGGGCGG-3' DNA hairpin assessed as change in fluorescence intensity at 1 uM after 45 mins by fluorescence quenching analysis relative to control
[19] = Binding affinity to 5'-CGGGGCGG-3' DNA hairpin assessed as change in fluorescence intensity at 1 uM after 45 mins by fluorescence quenching analysis relative to control
[20] = Binding affinity to 5'-CGCGGGCG-3' DNA hairpin assessed as change in fluorescence intensity at 1 uM after 45 mins by fluorescence quenching analysis relative to control
[21] = Binding affinity to 5'-GCCGCCGC-3' DNA hairpin assessed as change in fluorescence intensity at 1 uM after 45 mins by fluorescence quenching analysis relative to control
[22] = Binding affinity to 5'-CGGGCGCG-3' DNA hairpin assessed as change in fluorescence intensity at 1 uM after 45 mins by fluorescence quenching analysis relative to control
[23] = Binding affinity to 5'-GCCGCGCC-3' DNA hairpin assessed as change in fluorescence intensity at 1 uM after 45 mins by fluorescence quenching analysis relative to control
[24] = Binding affinity to 5'-CGGGGCGC-3' DNA hairpin assessed as change in fluorescence intensity at 1 uM after 45 mins by fluorescence quenching analysis relative to control
[25] = Binding affinity to 5'-GCGCCCGG-3' DNA hairpin assessed as change in fluorescence intensity at 1 uM after 45 mins by fluorescence quenching analysis relative to control
[26] = Binding affinity to 5'-GGGCGGCC-3' DNA hairpin assessed as change in fluorescence intensity at 1 uM after 45 mins by fluorescence quenching analysis relative to control
[27] = Binding affinity to 5'-GCGGCGCC-3' DNA hairpin assessed as change in fluorescence intensity at 1 uM after 45 mins by fluorescence quenching analysis relative to control
[28] = Binding affinity to 5'-CGCGCGGG-3' DNA hairpin assessed as change in fluorescence intensity at 1 uM after 45 mins by fluorescence quenching analysis relative to control
[29] = Binding affinity to 5'-GCCCGCGG-3' DNA hairpin assessed as change in fluorescence intensity at 1 uM after 45 mins by fluorescence quenching analysis relative to control
[30] = Binding affinity to 5'-GCGCCCGC-3' DNA hairpin assessed as change in fluorescence intensity at 1 uM after 45 mins by fluorescence quenching analysis relative to control
[31] = Binding affinity to 5'-GGCGGCGC-3' DNA hairpin assessed as change in fluorescence intensity at 1 uM after 45 mins by fluorescence quenching analysis relative to control
[32] = Binding affinity to 5'-GCCGGCGC-3' DNA hairpin assessed as change in fluorescence intensity at 1 uM after 45 mins by fluorescence quenching analysis relative to control
[33] = Binding affinity to 5'-GCGGCCCG-3' DNA hairpin assessed as change in fluorescence intensity at 1 uM after 45 mins by fluorescence quenching analysis relative to control
[34] = Binding affinity to 5'-CCGCCGGC-3' DNA hairpin assessed as change in fluorescence intensity at 1 uM after 45 mins by fluorescence quenching analysis relative to control
[35] = Binding affinity to 5'-CCGCGCCG-3' DNA hairpin assessed as change in fluorescence intensity at 1 uM after 45 mins by fluorescence quenching analysis relative to control
[36] = Binding affinity to 5'-GGCGGCCG-3' DNA hairpin assessed as change in fluorescence intensity at 1 uM after 45 mins by fluorescence quenching analysis relative to control

SMILES: NCC1O[C@H](O[C@H]2[C@@H](O)[C@H](O[C@@H]3[C@@H](O)[C@H](N)C[C@H](N)[C@H]3O[C@H]3O[C@H](CN)[C@@H](O)[C@H](O)[C@H]3N)O[C@@H]2CSCCNC(=O)CCSCC(=O)Nc2ccc(-c3c4ccc(=O)cc-4oc4cc(O)ccc34)c(C(=O)O)c2)[C@H](N)[C@@H](O)[C@@H]1O (stereo partly specified)
- Activity [1]: 10.1%
- Activity [2]: 23.6%
- Activity [3]: 25.1%
- Activity [4]: 28.6%
- Activity [5]: 33.4%
- Activity [6]: 35.1%
- Activity [7]: 36.2%
- Activity [8]: 38.9%
- Activity [9]: 40.2%
- Activity [10]: 40.4%
- Activity [11]: 41.1%
- Activity [12]: 41.3%
- Activity [13]: 41.9%
- Activity [14]: 42%
- Activity [15]: 42.9%
- Activity [16]: 43.6%
- Activity [17]: 44.1%
- Activity [18]: 45%
- Activity [19]: 45.5%
- Activity [20]: 47.5%
- Activity [21]: 47.9%
- Activity [22]: 48.7%
- Activity [23]: 48.8%
- Activity [24]: 49%
- Activity [25]: 49.3%
- Activity [26]: 49.4%
- Activity [27]: 49.9%
- Activity [28]: 49.9%
- Activity [29]: 50.3%
- Activity [30]: 50.3%
- Activity [31]: 50.6%
- Activity [32]: 51.9%
- Activity [33]: 52.5%
- Activity [34]: 52.6%
- Activity [35]: 53.7%
- Activity [36]: 56.4%
